From patent US20060287316A1, “METHOD FOR IMPROVING PHARMACOKINETICS OF PROTEASE INHIBITORS AND PROTEASE INHIBITOR PRECURSORS” (priority 2005, published 2006)

Tests used:
[1] = Plasma concentration after single oral dose in rats (in vivo cleavage of the phosphate group); set-up: species or system male Sprague-Dawley rats; conditions: 50 mg/Kg po, vehicle Mix, 3 rats
Method: To assess the extent of in vivo cleavage of the phosphate group from the putative compounds, PL-100, PL-462 (based on PL-100), PL-337 and PL-515 (based on PL-337) compounds were administered po (per os, (i.e., by mouth)) (50 mg/kg) to male Sprague-Dawley rats and their plasma concentration measured at different time intervals post-administration.
All test articles (PL-100, PL-462, PL-337 and PL-515) were prepared in different vehicle at the final concentration of 25 mg/mL. The vehicle composition is as follows: (1) 20% ethanol; 50% propylene glycol; 0.05% w/v Tween 20 and water (Mix); (2) PBS buffer (PBS).
Test articles were administered to male Sprague-Dawley rats at a single oral dose of 50 mg/kg. Each article was tested in three rats. Blood samples (0.2-0.3 mL) were collected at the post-dose time of 10, 20, 40, 60, 120, 180 and 360 minutes. The harvested blood was centrifuged to isolate plasma. The resulting plasma was separated and stored at −70° C.
Plasma samples together with standards and quality control samples were treated to precipitate proteins, then analyzed by HPLC-MS, for the presence of PL-462, PL-100, PL-515 and PL-337.

[2] = Partition coefficient (LogP), octanol / phosphate buffer; type: physicochemical; conditions: octanol / phosphate buffer pH 7.4
Text: The concentration of the compounds in the phases was detected by LC-MS.

SMILES: COC(=O)N[C@H](C(=O)NCCCC[C@@H](CO)N(CC(C)C)S(=O)(=O)c1ccc(N)c(F)c1)C(c1ccccc1)c1ccccc1 [PL-337, (1-{5-[(4-amino-3-fluoro-benzenesulfonyl)-isobutyl-amino]-6-hydroxy-hexylcarbamoyl}-2,2-diphenyl-ethyl)-carbamic acid methyl ester]
- AUC [1]: 1.180 ± 0.196 μg/hr * ml
- Cmax ([1]; male, Sprague-Dawley, rat, plasma): 681 ± 131 nM
- Tmax ([1]; male, Sprague-Dawley, rat, plasma, read-out: Tmax (converted)): 1 h
- logP [2]: 3.8
